According to publication PMC6630443 (Viruses, 2019):

Tested on: persistent USUV
Type: cell-based, Usutu virus

Compound: NC(=O)c1nc(F)cnc1O [Favipiravir, 6-fluoro-3-hydroxy-2-pyrazinecarboxamide]
- USUV infectivity in supernatant after drug removal: re-emerged
- Viral RNA levels in cellular supernatant by day 10: barely detectable

Compound: NC(=O)c1ncn([C@@H]2O[C@H](CO)[C@@H](O)[C@H]2O)n1 [Ribavirin, 1-(β-D-Ribofuranosyl)-1H-1,2,4-triazole-3-carboxamide]
- USUV infectivity in supernatant after drug removal: re-emerged
- Viral RNA levels in cellular supernatant by day 10: barely detectable
